Experimental data reported in US12304931B2, “MENTSH analogs as therapeutics for diabetes, obesity, and their associated diseases and complications” (University of Southern California, priority 2016, dated 2025).
Ends that are not written are not given here.

Test: Pharmacokinetics of injected peptide in mice (ELISA)
Type: in vivo
Details: ELISA detection
From the text: FIG. 19. Detection of MENTSH mRNA and peptide and pharmacokinetics of injected peptide in mice. Northern blot hybridization identified the presence of MENTSH transcript in mitochondrial mRNA.
Northern blot hybridization identified the presence of MENTSH transcript in mitochondrial mRNA (FIG. 19). Further, the Inventors developed an ELISA assay for detection of MENTSH. […] Increasing persistent bioavailability of MENTSH by analogs, or other artificial modifications may further improve biological effects for therapeutic use.

persistence of injected peptide: ~1 h
Sequence: MKPNPATQNLSMLLNYPH [MENTSH, MKPNPATQNLSMLLNYPH]
